Counter-ions that a name gives are not always drawn. Like-named read-outs stand apart in the source and are kept apart here.
Legend:
TRIB2 = target: T1, TRIB2 (Homo sapiens, UniProt Q92519); assay: TRIB2 kinase activity assay (Eurofins, 33P-ATP filter binding); assay type: biochemical; parameters: purchased Eurofins
T1 sequence (Q92519 1-343): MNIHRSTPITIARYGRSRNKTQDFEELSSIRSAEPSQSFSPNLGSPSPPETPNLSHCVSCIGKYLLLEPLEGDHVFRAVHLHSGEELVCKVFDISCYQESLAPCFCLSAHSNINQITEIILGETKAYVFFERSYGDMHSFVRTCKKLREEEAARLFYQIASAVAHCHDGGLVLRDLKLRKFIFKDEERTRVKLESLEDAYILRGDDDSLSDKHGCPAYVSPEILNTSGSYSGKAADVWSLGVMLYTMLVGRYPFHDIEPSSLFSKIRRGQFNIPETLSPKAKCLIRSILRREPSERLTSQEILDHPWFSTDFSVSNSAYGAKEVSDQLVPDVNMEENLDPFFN
Procedure: TRIB2 kinase activity assay was conducted in Eurofins. […] Afterward, the reaction was terminated with 0.5% phosphoric acid.

HepG2 = assay: Assay for anticancer activity, cell viability (Cell Counting Kit-8); assay type: cell-based; conditions: HepG2 cells, 10 μM compound, 3 days
Procedure: (§1) Assay for anticancer activity was conducted as follows. Corresponding cancer cells were seeded at a density of 4,000 cells/well into 96-well plates and stabilized for 24 hours. Thereafter, the cells in each well were treated with 10 μM of the each of the compounds for 3 days. Then, cell viability was assayed using Cell Counting Kit-8 from Dojindo.

A549 = assay: as above; assay type: cell-based; conditions: A549 cells, 10 μM compound, 3 days
Procedure: as §1

[1] = human TRIB2, 15 μM gamma-33P-ATP, 120 minutes at room temperature, read-out: TRIB2 Kimase activity assay IC50

| SMILES | IC50 (TRIB2; [1]) | Cell viability (% of Con. 10 μM) HepG2 (HepG2) | Cell viability (% of Con. 10 μM) A549 (A549) | IC50 (TRIB2) |
| --- | --- | --- | --- | --- |
| O=C(NC1CCN(C(=O)c2ccccc2)CC1)c1nn(C(=O)c2ccccc2)c2ccc(-c3cccnc3F)cc12 [Compound 10, 1-benzoyl-N-(1-benzoylpiperidin-4-yl)-5-(2-fluoropyridin-3-yl)-1H-indazole-3-carboxamide] | 10 to 100 nM | – | – | – |
| O=C(NC1CCN(C(=O)C2CC2)CC1)c1nn(C(=O)C2CC2)c2ccc(-c3cccnc3F)cc12 [Compound 11, 1-(cyclopropanecarbonyl)-N-(1-(cyclopropanecarbonyl)piperidin-4-yl)-5-(2-fluoropyridin-3-yl)-1H-indazole-3-carboxamide] | 100 to 1000 nM | – | – | – |
| O=C(NC1CCN(C(=O)c2ccccc2)CC1)c1n[nH]c2ccc(-c3cccnc3F)cc12 [Compound 12, N-(1-benzoylpiperidin-4-yl)-5-(2-fluoropyridin-3-yl)-1H-indazole-3-carboxamide] | 10 to 100 nM | – | – | – |
| O=C(NC1CCNCC1)c1n[nH]c2ccc(-c3ccnc(F)c3)cc12 [Compound 13, 5-(2-fluoropyridin-4-yl)-N-(piperidin-4-yl)-1H-indazole-3-carboxamide] | 10 to 100 nM | – | – | – |
| O=C(NC1CCCCC1)c1n[nH]c2ccc(-c3cccnc3F)cc12 [Compound 14, N-Cyclohexyl-5-(2-fluoropyridin-3-yl)-1H-indazole-3-carboxamide] | 100 to 1000 nM | – | – | – |
| O=C(N[C@H]1CC[C@H](O)CC1)c1n[nH]c2ccc(-c3cccnc3F)cc12 [Compound 16, 5-(2-fluoropyridin-3-yl)-N-((1r,4r)-4-hydroxycyclohexyl)-1H-indazole-3-carboxamide] | 100 to 1000 nM | – | – | – |
| N[C@H]1CC[C@@H](NC(=O)c2n[nH]c3ccc(-c4cccnc4F)cc23)CC1 [Compound 18, N-((1s, 4s)-4-aminocyclohexyl)-5-(2-fluoropyridin-3-yl)-1H-indazole-3-carboxamide] | 100 to 1000 nM | – | – | – |
| N[C@H]1CC[C@H](NC(=O)c2n[nH]c3ccc(-c4cccnc4F)cc23)CC1 [Compound 19, N-((1r, 4r)-4-aminocyclohexyl)-5-(2-fluoropyridin-3-yl)-1H-indazole-3-carboxamide] | 100 to 1000 nM | – | – | – |
| O=C(NC1CCNC1)c1n[nH]c2ccc(-c3cccnc3F)cc12 (stereo not drawn) [Compound 20, 5-(2-fluoropyridin-3-yl)-N-(pyrrodin-3-yl)-1H-indazole-3-carboxamide] | 10 to 100 nM | – | – | – |
| O=C(c1n[nH]c2ccc(-c3cccnc3F)cc12)N1CCc2ccccc2C1 [Compound 21, (3,4-dihydroisoquinolin-2-(1H)-yl)(5-(2-fluoropyridin-3-yl)-1H-indazol-3-yl)methanone] | 100 to 1000 nM | – | – | – |
| O=C(NCCN1CCOCC1)c1n[nH]c2ccc(-c3cccnc3F)cc12 [Compound 22, 5-(2-fluoropyridin-3-yl)-N-(2-morpholinoethyl)-1H-indazole-3-carboxamide] | 100 to 1000 nM | – | – | – |
| O=C(Nc1ccc2c(c1)CN(C(=O)C(F)(F)F)CC2)c1n[nH]c2ccc(-c3cccnc3F)cc12 [Compound 24, 5-(2-fluoropyridin-3-yl)-N-(2-(2,2,2-trifluoroacetyl)-1,2,3,4-tetrahydroisoquinolin-7-yl)-1H-indazole-3-carboxamide] | 1 to 10 nM | 10 % of Con. | – | – |
| O=C(Nc1ccncc1)c1n[nH]c2ccc(-c3cn[nH]c3)cc12 [Compound 26, 5-(1H-pyrazol-4-yl)-N-(pyridin-4-yl)-1H-indazole-3-carboxamide] | 10 to 100 nM | 24 % of Con. | 30 % of Con. | – |
| CC(C)n1cc(-c2ccc3[nH]nc(C(=O)Nc4ccncc4)c3c2)cn1 [Compound 28, 5-(1-isopropyl-1H-pyrazol-4-yl)-N-(pyridin-4-yl)-1H-indazole-3-carboxamide] | 10 to 100 nM | 16 % of Con. | 17 % of Con. | – |
| Cn1cc(-c2ccc3[nH]nc(C(=O)Nc4ccncc4)c3c2)cn1 [Compound 29, 5-(1-methyl-1H-pyrazol-4-yl)-N-(pyridin-4-yl)-1H-indazole-3-carboxamide] | 10 to 100 nM | 16 % of Con. | 31 % of Con. | – |
| O=C(Nc1ccncc1)c1n[nH]c2ccc(-c3cnn(Cc4ccccc4)c3)cc12 [Compound 33, 5-(1-benzyl-1H-pyrazol-4-yl)-N-(pyridin-4-yl)-1H-indazole-3-carboxamide] | 1 to 10 nM | – | 20 % of Con. | – |
| O=C(Nc1ccncc1)c1n[nH]c2ccc(-c3ccoc3)cc12 [Compound 34, 5-(furan-3-yl)-N-(pyridin-4-yl)-1H-indazole-3-carboxamide] | 10 to 100 nM | 49 % of Con. | 51 % of Con. | – |
| CCCn1cc(-c2ccc3[nH]nc(C(=O)Nc4ccncc4)c3c2)cn1 [Compound 36, 5-(1-propyl-1H-pyrazol-4-yl)-N-(pyridin-4-yl)-1H-indazole-3-carboxamide] | 1 to 10 nM | 15 % of Con. | 28 % of Con. | – |
| O=C(Nc1ccncc1)c1n[nH]c2ccc(-c3ccc(N4CCNCC4)cc3)cc12 [Compound 46, 5-(4-(piperazin-1-yl)phenyl)-N-(pyridin-4-yl)-1H-indazole-3-carboxamide hydrochloride] | 10 to 100 nM | 46 % of Con. | 58 % of Con. | – |
| O=Cc1ccc(-c2ccc3[nH]nc(C(=O)Nc4ccncc4)c3c2)o1 [Compound 47, 5-(5-formylfuran-2-yl)-N-(pyridin-4-yl)-1H-indazole-3-carboxamide] | 10 to 100 nM | 32 % of Con. | 55 % of Con. | – |
| O=C(NCc1ccncc1)c1n[nH]c2ccc(-c3cccnc3F)cc12 [Compound 51, 5-(2-fluoropyridin-3-yl)-N-(pyridin-4-ylmethyl)-1H-indazole-3-carboxamide] | 10 to 100 nM | 37 % of Con. | 44 % of Con. | – |
| O=Cc1cc2c(cc1-c1ccc3[nH]nc(C(=O)Nc4ccncc4)c3c1)OCO2 [Compound 52, 5-(6-formylbenzo[d][1,3]dioxol-5-yl)-N-(pyridin-4-yl)-1H-indazole-3-carboxamide] | – | 32 % of Con. | 39 % of Con. | 10 to 100 nM |
| O=C(Nc1ccc2c(c1)CN(C(=O)C(F)(F)F)CC2)c1nn(C2CCCCO2)c2ccc(-c3cccnc3F)cc12 (stereo not drawn) [Compound 53, 5-(2-fluoropyridin-3-yl)-1-(tetrahydro-2H-pyran-2-yl)-N-(2-(2,2,2-trifluoroacetyl)-1,2,3,4-tetrahydroisoquinolin-7-yl)-1H-indazole-3-carboxamide] | 1 to 10 nM | 10 % of Con. | 13 % of Con. | – |
| O=C(Nc1ccc2c(c1)CNCC2)c1n[nH]c2ccc(-c3cccnc3F)cc12 [Compound 55, 5-(2-fluoropyridin-3-yl)-N-(1,2,3,4-tetrahydroisoquinolin-7-yl)-1H-indazole-3-carboxamide hydrochloride] | 1 to 10 nM | 12 % of Con. | 10 % of Con. | – |
| CC1(C)NCCc2ccc(NC(=O)c3n[nH]c4ccc(-c5cccnc5F)cc34)cc21 [Compound 59, N-(1,1-dimethyl-1,2,3,4-tetrahydroisoquinolin-7-yl)-5-(2-fluoropyridin-3-yl)-1H-indazole-3-carboxamide] | 1 to 10 nM | 6 % of Con. | 2 % of Con. | – |
| CC1NCCc2ccc(NC(=O)c3n[nH]c4ccc(-c5cccnc5F)cc34)cc21 (stereo not drawn) [Compound 63, 5-(2-fluoropyridin-3-yl)-N-(1-methyl-1,2,3,4-tetrahydroisoquinolin-7-yl)-1H-indazole-3-carboxamide] | 1 to 10 nM | 7 % of Con. | 4 % of Con. | – |
| O=C(Nc1ccc2c(c1)CCNC2)c1n[nH]c2ccc(-c3cccnc3F)cc12 [Compound 64, 5-(2-fluoropyridin-3-yl)-N-(1,2,3,4-tetrahydroisoquinolin-6-yl)-1H-indazole-3-carboxamide] | 1 to 10 nM | 7 % of Con. | 8 % of Con. | – |
| Cn1ncc2c(NC(=O)c3n[nH]c4ccc(-c5cccnc5F)cc34)ccnc21 [Compound 65, 5-(2-fluoropyridin-3-yl)-N-(1-methyl-1H-pyrazolo[3,4-b]pyridin-4-yl)-1H-indazole-3-carboxamide] | 10 to 100 nM | 28 % of Con. | 24 % of Con. | – |
| O=C(Nc1ccncc1)c1nn(C2CCCCO2)c2ccc(-c3cccnc3F)cc12 (stereo not drawn) [Compound 66, 5-(2-fluoropyridin-3-yl)-N-(pyridin-4-yl)-1-(tetrahydro-2H-pyran-2-yl)-1H-indazole-3-carboxamide] | – | 11 % of Con. | 55 % of Con. | 10 to 100 nM |

Source: US20230116733A1, “NOVEL INDAZOLE DERIVATIVE AND USE THEREOF” (KOREA RESEARCH INSTITUTE OFCHEMICAL TECHNOLOGY, priority 2019, published 2023)
